Several values for one entry are separate records, joined by “and”; a condition that tells them apart may be missing. Equal entries are not always repeated.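 Results reflect a 48-hour exposure of cells in 96-well plates to compound at five concentrations. GI50 = concentration required for 50% inhibition of growth. TGI marks complete inhibition of growth.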
Columns and labels:
Test in all cases: DTP human tumour cell line panel, 48 h
LOX IMVI melanoma = system: LOX IMVI melanoma
SK-MEL-2 melanoma = system: SK-MEL-2 melanoma
HL-60(TB) leukemia = system: HL-60(TB) leukemia
MDA-MB-231 breast = system: MDA-MB-231 breast
NCI-H460 lung = system: NCI-H460 lung
EKVX NSCLC = system: EKVX NSCLC
NCI-H23 lung = system: NCI-H23 lung
ACHN renal = system: ACHN renal
SK-MEL-5 melanoma = system: SK-MEL-5 melanoma
BT-549 breast = system: BT-549 breast

Compound	GI50 (LOX IMVI melanoma)	TGI (LOX IMVI melanoma)	GI50 (SK-MEL-2 melanoma)	TGI (SK-MEL-2 melanoma)	GI50 (HL-60(TB) leukemia)	TGI (HL-60(TB) leukemia)	GI50 (MDA-MB-231 breast)	TGI (MDA-MB-231 breast)	GI50 (NCI-H460 lung)	TGI (NCI-H460 lung)	TGI (EKVX NSCLC)	GI50 (NCI-H23 lung)	TGI (NCI-H23 lung)	GI50 (ACHN renal)	TGI (ACHN renal)	GI50 (SK-MEL-5 melanoma)	TGI (SK-MEL-5 melanoma)	GI50 (BT-549 breast)	TGI (BT-549 breast)	GI50 (EKVX NSCLC)
Cc1cnc(Nc2ccc(OCCN3CCCC3)cc2)nc1Nc1cccc(S(=O)(=O)NC(C)(C)C)c1	0.211 µM and 0.938 µM	1.61 µM and 2.3 µM	0.17 µM and 0.759 µM	2.68 µM and > 10 µM	0.516 µM	0.6 µM and 2.16 µM	0.214 µM and 1.33 µM	11.7 µM and > 10 µM	0.228 µM and 1.09 µM	7.28 µM and > 10 µM	12.9 µM and > 10 µM	0.307 µM and 1.92 µM	7.05 µM and > 10 µM	0.0927 µM and 0.733 µM	1.89 µM and 3.49 µM	1.73 µM and 2.1 µM	5.38 µM and > 5.38 µM	1.74 µM and 2.68 µM	4.38 µM and > 9.47 µM	
COc1cc2c3c(c1OC)C1(C=CC(=O)C=C1)CC3NCC2 (stereo not drawn)		> 100 µM		> 100 µM		> 100 µM		> 100 µM		> 100 µM	> 100 µM		> 100 µM		> 100 µM		> 100 µM		> 100 µM	
CC(=O)c1cc(-c2ccccc2N)n(-c2ccc3c(c2)OCO3)c1C	0.297 µM	> 100 µM	0.31 µM		0.217 µM	0.592 µM	0.134 µM	> 77 µM	0.169 µM	13.2 µM	> 100 µM	0.218 µM	97.6 µM	0.398 µM	> 100 µM	0.196 µM	1.59 µM	0.575 µM	9.9 µM	0.392 µM
COC(=O)c1ccc(CN2C(=O)C(Cl)=C(Nc3ccc(OC)c(Cl)c3)C2=O)cc1	5.66 µM	26.7 µM	20.5 µM	> 50 µM	32 µM	> 50 µM	7.14 µM	26.3 µM	14.8 µM	> 50 µM	> 50 µM	14.4 µM	39.3 µM	8.44 µM	18.4 µM	31.6 µM	> 50 µM	11.3 µM	26.7 µM	22.3 µM
COc1cc2c(c(OC)c1OC)-c1ccc(O)c(=O)cc1[C@@H](NC(C)=O)CC2	5.89 µM	> 100 µM and 60.1 µM	20 µM	> 100 µM	3.31 µM	15.6 µM and 32.7 µM	4.7 µM	> 100 µM and 41.7 µM	3.9 µM	> 100 µM and 28.6 µM	> 100 µM		39.5 µM	5.61 µM	> 100 µM and 44.5 µM		32.2 µM and 20.5 µM	24 µM	> 100 µM and 39.4 µM	
Nc1cc2[nH]cnc2c(=O)[nH]1		> 300 µM		125 µM		178 µM		> 300 µM		> 300 µM	> 300 µM		> 300 µM		> 300 µM		> 290 µM		> 300 µM	
C/C(=C(/c1ccc(O)cc1)c1ccc(Cl)cc1)c1ccccc1	0.432 µM	0.788 µM	0.659 µM	1.81 µM	0.646 µM	1.71 µM	0.653 µM	1.86 µM	0.471 µM	0.945 µM	2.12 µM	0.625 µM	1.84 µM	0.628 µM	1.8 µM	0.454 µM	0.849 µM	0.575 µM	1.53 µM	0.698 µM
CC(C)(C)n1cc(-c2ccnc(NCCCNS(=O)(=O)c3ccc(Br)cc3)c2)c(-c2cccc(O)c2)n1	1.77 µM	3.2 µM	2.13 µM	4.31 µM	2.72 µM	7.49 µM	1.74 µM	3.39 µM	1.99 µM	3.99 µM	4.58 µM	1.83 µM	3.72 µM	1.99 µM	3.89 µM	1.52 µM	2.87 µM	1.5 µM	2.98 µM	1.95 µM
Oc1c(Cl)cc(Cl)cc1Sc1cc(Cl)cc(Cl)c1O	2.93 µM and 3 µM	11.2 µM and 10.8 µM	2.62 µM and 1.07 µM	5.4 µM and 2.91 µM	2.88 µM and 2.72 µM	6.5 µM and 7.5 µM	2.59 µM and 1.86 µM	6.07 µM and 4.34 µM	2.98 µM and 2.56 µM	9.91 µM and 8.1 µM	14.1 µM and 9.1 µM	2.56 µM and 2.34 µM	10.8 µM and 7.76 µM	2.92 µM and 3.27 µM	10.7 µM and 11.3 µM	1.84 µM and 1.74 µM	4.04 µM and 4.03 µM	2.81 µM	8.09 µM	3.8 µM and 2.51 µM
Cc1ccc(/C=C2/NC(=S)SC2=O)cc1		> 100 µM		> 100 µM		> 100 µM		83.4 µM		50.4 µM	> 100 µM		64.8 µM		> 100 µM		> 100 µM		54.2 µM	
COC(=O)C(=O)C(C(=O)C(N)=O)c1nc2ccc(C(=O)c3ccccc3)cc2[nH]c1=O (stereo not drawn)		> 100 µM		> 100 µM		> 100 µM		> 100 µM		> 100 µM	> 100 µM				> 100 µM		> 100 µM		> 100 µM	
CCCCCCNC(=O)Oc1ccc(/C(=C(/C)Cc2ccc(OC)cc2)c2ccc(OCCN(C)C)cc2)cc1	4.39 µM	8.8 µM	5.91 µM	11 µM	4.82 µM	10.3 µM	5 µM	9.65 µM	4.22 µM	8.93 µM	10.1 µM	5.28 µM	10.5 µM	5.43 µM	9.99 µM	5.46 µM	10.2 µM	5.11 µM	9.86 µM	4.91 µM
COc1ccc([C@@H](O)c2cc(-c3ncnc4cc(N5CCOCC5)ccc34)c(F)cc2Cl)nn1	2.84 µM	24.8 µM	7.37 µM	25.3 µM	0.36 µM	17.7 µM	4.96 µM	> 100 µM	2.92 µM	43.4 µM	42.9 µM	8 µM	94.6 µM	2.53 µM	91 µM	1.99 µM	8.1 µM	1.44 µM	20.3 µM	5.35 µM
COC(=O)[C@]1(C)CCC[C@@]2(C)[C@@H]3C[C@@H]4[C@H]5C[C@@]3(CC[C@@H]21)C[C@@]45C		34.9 µM		30.9 µM		17.8 µM		29.9 µM			31.7 µM		28.2 µM		29.2 µM		34.3 µM		30.2 µM	

From PubChem BioAssay (NCI)
